In ChEMBL document CHEMBL3885881, “DrugMatrix”:

Organism: Rattus norvegicus
Experiment: DrugMatrix - Regimen: Daily Repeat
Assay type: toxicity, organism-based, Sprague-Dawley
Parameters: regimen Daily Repeat, gender Male, age 6-8 weeks
Conditions: in vivo, po, […], route oral GAVAGE; for ABSOLUTE BASOPHIL / ABSOLUTE EOSINOPHIL / ABSOLUTE LYMPHOCYTE / ABSOLUTE MONOCYTE / ABSOLUTE SEGMENTED NEUTROPHIL / BASOPHIL / EOSINOPHIL / ERYTHROCYTE COUNT / HEMATOCRIT / HEMOGLOBIN / LEUKOCYTE COUNT / LYMPHOCYTE / MEAN CORPUSCULAR HEMOGLOBIN / MEAN CORPUSCULAR HEMOGLOBIN CONCENTRATION / MEAN CORPUSCULAR VOLUME / MONOCYTE / NEUTROPHIL / NUCLEATED RED BLOOD CELLS / PLATELET COUNT: tissue Blood; for ALANINE AMINOTRANSFERASE / ALBUMIN / ALKALINE PHOSPHATASE / ASPARTATE AMINOTRANSFERASE / BLOOD UREA NITROGEN / CARBON DIOXIDE / CHLORIDE / CHOLESTEROL / CREATINE PHOSPHOKINASE / CREATININE / GLUCOSE / LACTATE DEHYDROGENASE / LIPASE / PHOSPHORUS / POTASSIUM / SODIUM / TOTAL BILIRUBIN / TOTAL PROTEIN / URIC ACID: tissue Plasma
[1] = 130 mg/kg, dose level Low, time 7 day
[2] = 500 mg/kg, 72 h, dose level High, time 3 day
[3] = 500 mg/kg, dose level High, time 7 day

In the case of CCOC(=O)C(C)(C)Oc1ccc(Cl)cc1 [CLOFIBRATE], the “ABSOLUTE BASOPHIL” value [1] is reported as 0 CELLS/uL, the “ABSOLUTE EOSINOPHIL” value [1] is reported as 21.17 CELLS/uL and the “ABSOLUTE LYMPHOCYTE” value [1] is reported as 6867.67 CELLS/uL. The “ABSOLUTE MONOCYTE” value [1] was 104.17 CELLS/uL, the “ABSOLUTE SEGMENTED NEUTROPHIL” value [1] was 707 CELLS/uL and the BASOPHIL [1] was 0%. For the same molecule, the EOSINOPHIL [1] was 0.17%, the “ERYTHROCYTE COUNT” value [1] was 5.45 x10E6/uL and the HEMATOCRIT [1] was 34%. For the same molecule, the HEMOGLOBIN [1] was 13.12 G/DL, the “LEUKOCYTE COUNT” value [1] was 7.7 x10E3/uL and the LYMPHOCYTE [1] was 90.17%. For the same molecule, the “MEAN CORPUSCULAR HEMOGLOBIN” value [1] was 24.08 pg, the “MEAN CORPUSCULAR HEMOGLOBIN CONCENTRATION” value [1] was 38.57 G/DL and the “MEAN CORPUSCULAR VOLUME” value [1] was 62.45 fL. For the same molecule, the MONOCYTE [1] was 1.17%, the NEUTROPHIL [1] was 8.5% and the “NUCLEATED RED BLOOD CELLS” value [1] was 0 /100WBC. For the same molecule, the “PLATELET COUNT” value [1] was 1220 x10E3/uL, the “ALANINE AMINOTRANSFERASE” value [1] was 65.83 u/L and the ALBUMIN [1] was 4.38 G/DL. The “ALKALINE PHOSPHATASE” value [1] was 251.5 u/L, the “ASPARTATE AMINOTRANSFERASE” value [1] was 76.33 u/L and the “BLOOD UREA NITROGEN” value [1] was 14.33 mg/dL. For the same molecule, the “CARBON DIOXIDE” value [1] was 30.5 mmol/L, the CHLORIDE [1] was 104.5 MEQ/L and the CHOLESTEROL [1] was 60.5 mg/dL. The “CREATINE PHOSPHOKINASE” value [1] was 323.5 u/L, the CREATININE [1] was 0.21 mg/dL and the GLUCOSE [1] was 149.17 mg/dL. For the same molecule, the “LACTATE DEHYDROGENASE” value [1] was 102.17 u/L, the LIPASE [1] was 9.67 u/L and the PHOSPHORUS [1] was 10.73 mg/dL. For the same molecule, the POTASSIUM [1] was 5.56 MEQ/L, the SODIUM [1] was 146.55 MEQ/L and the “TOTAL BILIRUBIN” value [1] was 0.1 mg/dL. For the same molecule, the “TOTAL PROTEIN” value [1] was 6.07 G/DL, the “URIC ACID” value [1] was 0.98 mg/dL and the “ABSOLUTE BASOPHIL” value [2] was 0 CELLS/uL. For the same molecule, the “ABSOLUTE EOSINOPHIL” value [2] was 0 CELLS/uL, the “ABSOLUTE LYMPHOCYTE” value [2] was 11363.33 CELLS/uL and the “ABSOLUTE MONOCYTE” value [2] was 222.5 CELLS/uL. The “ABSOLUTE SEGMENTED NEUTROPHIL” value [2] was 1180.83 CELLS/uL, the BASOPHIL [2] was 0% and the EOSINOPHIL [2] was 0%. The “ERYTHROCYTE COUNT” value [2] was 5.54 x10E6/uL, the HEMATOCRIT [2] was 33.68% and the HEMOGLOBIN [2] was 13.67 G/DL. For the same molecule, the “LEUKOCYTE COUNT” value [2] was 12.77 x10E3/uL, the LYMPHOCYTE [2] was 89% and the “MEAN CORPUSCULAR HEMOGLOBIN” value [2] was 24.72 pg. For the same molecule, the “MEAN CORPUSCULAR HEMOGLOBIN CONCENTRATION” value [2] was 40.7 G/DL, the “MEAN CORPUSCULAR VOLUME” value [2] was 60.78 fL and the MONOCYTE [2] was 1.67%. For the same molecule, the NEUTROPHIL [2] was 9.33%, the “NUCLEATED RED BLOOD CELLS” value [2] was 0 /100WBC and the “PLATELET COUNT” value [2] was 1039.67 x10E3/uL. The “ALANINE AMINOTRANSFERASE” value [2] was 88.83 u/L, the ALBUMIN [2] was 4.27 G/DL and the “ALKALINE PHOSPHATASE” value [2] was 424.33 u/L. For the same molecule, the “ASPARTATE AMINOTRANSFERASE” value [2] was 162 u/L, the “BLOOD UREA NITROGEN” value [2] was 18 mg/dL and the “CARBON DIOXIDE” value [2] was 26.83 mmol/L. For the same molecule, the CHLORIDE [2] was 103.5 MEQ/L, the CHOLESTEROL [2] was 32.5 mg/dL and the “CREATINE PHOSPHOKINASE” value [2] was 350.5 u/L. The CREATININE [2] was 0.19 mg/dL, the GLUCOSE [2] was 152.17 mg/dL and the “LACTATE DEHYDROGENASE” value [2] was 380 u/L. It also gave an LIPASE [2] of 9.17 u/L, a PHOSPHORUS [2] of 9.13 mg/dL and a POTASSIUM [2] of 6.05 MEQ/L. The SODIUM [2] was 141.43 MEQ/L, the “TOTAL BILIRUBIN” value [2] was 0.2 mg/dL and the “TOTAL PROTEIN” value [2] was 5.38 G/DL. The “URIC ACID” value [2] was 1.42 mg/dL, the “ABSOLUTE BASOPHIL” value [3] was 0 CELLS/uL and the “ABSOLUTE EOSINOPHIL” value [3] was 10.67 CELLS/uL. For the same molecule, the “ABSOLUTE LYMPHOCYTE” value [3] was 6850.83 CELLS/uL, the “ABSOLUTE MONOCYTE” value [3] was 72 CELLS/uL and the “ABSOLUTE SEGMENTED NEUTROPHIL” value [3] was 433.17 CELLS/uL. The BASOPHIL [3] was 0%, the EOSINOPHIL [3] was 0.17% and the “ERYTHROCYTE COUNT” value [3] was 5.25 x10E6/uL. For the same molecule, the HEMATOCRIT [3] was 32.12%, the HEMOGLOBIN [3] was 12.58 G/DL and the “LEUKOCYTE COUNT” value [3] was 7.37 x10E3/uL. For the same molecule, the LYMPHOCYTE [3] was 92.67%, the “MEAN CORPUSCULAR HEMOGLOBIN” value [3] was 23.97 pg and the “MEAN CORPUSCULAR HEMOGLOBIN CONCENTRATION” value [3] was 39.23 G/DL. The “MEAN CORPUSCULAR VOLUME” value [3] was 61.12 fL, the MONOCYTE [3] was 1% and the NEUTROPHIL [3] was 6.17%. For the same molecule, the “NUCLEATED RED BLOOD CELLS” value [3] was 0 /100WBC, the “PLATELET COUNT” value [3] was 961.33 x10E3/uL and the “ALANINE AMINOTRANSFERASE” value [3] was 91 u/L. For the same molecule, the ALBUMIN [3] was 4.27 G/DL, the “ALKALINE PHOSPHATASE” value [3] was 368.83 u/L and the “ASPARTATE AMINOTRANSFERASE” value [3] was 131.17 u/L. The “BLOOD UREA NITROGEN” value [3] was 15.67 mg/dL, the “CARBON DIOXIDE” value [3] was 32 mmol/L and the CHLORIDE [3] was 102 MEQ/L. The CHOLESTEROL [3] was 52.67 mg/dL, the “CREATINE PHOSPHOKINASE” value [3] was 300.5 u/L and the CREATININE [3] was 0.21 mg/dL. For the same molecule, the GLUCOSE [3] was 154.17 mg/dL, the “LACTATE DEHYDROGENASE” value [3] was 169.67 u/L and the LIPASE [3] was 10.17 u/L. For the same molecule, the PHOSPHORUS [3] was 10.03 mg/dL, the POTASSIUM [3] was 5.38 MEQ/L and the SODIUM [3] was 143.68 MEQ/L. For the same molecule, the “TOTAL BILIRUBIN” value [3] was 0.1 mg/dL, the “TOTAL PROTEIN” value [3] was 5.75 G/DL and the “URIC ACID” value [3] was 0.85 mg/dL.
